Test systems include DLD-1; KM-20L2; M19-MEL; RXF 631; SNB-78; XF498; MDA-N; DMS-114; HOP-18.
Holding throughout (test): inhibition of tumour cell growth, NCI panel, 48 h

57 compounds from ChEMBL document CHEMBL1201862, “PubChem BioAssay data set” (2004) can be followed below.

SMILES strings stand for the structures.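 Tested at 5 concentrations; 48 h exposure; 96-well plates; endpoints linearly interpolated, else capped at highest concentration. The concentration for 50% growth inhibition is given as GI50.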 The source made the active and inactive calls. Cut-off read from the data, not from the text of the source: active = GI50 up to about 1.1 µM and inactive = higher. A value given as a limit tells only on which side of the number the result lay.

`CC(C)NCC(O)COC(=O)c1cccs1` (stereo not given): the GI50 in the test on DLD-1, in the test with KM-20L2, with M19-MEL, in the test on RXF 631, with SNB-78 and in the test with XF498 was > 100 µM (inactive) throughout.

With `CC(C)(CO)CNc1nc(N)nc(Cl)c1/C=N/O`, the GI50 in the test on MDA-N was 41.2 µM (inactive).

For `CN(C)CCNC(=O)Cc1ccccc1Nc1c(Cl)cccc1Cl`, the GI50 was 14.2 µM (inactive) with DLD-1; 17.7 µM (inactive) in the test on DMS-114; 4.31 µM (inactive) in the test with KM-20L2; 14.8 µM (inactive) with M19-MEL; 17.7 µM (inactive) in the test on SNB-78.

As to `COc1ccc(C(=O)c2[nH]c(Nc3cc(C)ccn3)c(C(=S)Nc3ccccc3)c2N)cc1`, in the test on MDA-N, the GI50 is 15.3 µM (inactive).

As for `N/C(CSCCSC/C(N)=N/O)=N\O`, the GI50 with MDA-N was > 100 µM (inactive).

As for `O=C(c1cccc(F)c1F)N1CCc2c([nH]c3ccccc23)C1c1ccc2c(c1)OCO2` (stereo not given), the GI50 in the test with MDA-N is 2.42 µM (inactive).

For `Cc1cc(Cc2cc(Cc3cc(C)cc(C(C)(C)C)c3O)c(C)cc2C)c(O)c(C(C)(C)C)c1`, the GI50 with MDA-N was 18.6 µM (inactive).

As for `COC(=O)c1ccc(Cc2cc(Cc3ccc(C(=O)OC)cc3)cc(Cc3ccc(C(=O)OC)cc3)c2)cc1`, in the test on MDA-N, the GI50 was > 25 µM (inactive).

With `CO/N=C\c1ccc2c(c1)Sc1ccccc1O2`, the GI50 in the test with MDA-N was 47.2 µM (inactive).

With `COc1ccc2c3c1OC1C4(CCC5C(C2)N(CC2CC2)CCC351)OCCO4` (stereo not given), the GI50 in the test with MDA-N is > 100 µM (inactive).

As for `CCOC(=O)c1c(-c2ccc(OC)cc2)c(C#N)c(=S)n(C2OC(CO)C(O)C(O)C2O)c1C` (stereo not given), the GI50 in the test with MDA-N is > 100 µM (inactive).

Consider `CNC(=S)N/N=C(\C)c1cc(OC)ccc1O`, for which the GI50 in the test with MDA-N was > 100 µM (inactive).

`c1ccc(C2CC(N3CCOCC3)=Nc3ccccc3N2)cc1` (stereo not given): in the test on MDA-N, the GI50 is > 100 µM (inactive).

In the case of `Cc1csc2c1C(=O)c1ccsc1C2=O`, the GI50 is 2.68 µM (inactive) with DLD-1; 1.69 µM (inactive) in the test with DMS-114; 1.95 µM (inactive) in the test with HOP-18; 4.28 µM (inactive) with KM-20L2; 0.175 µM (active) in the test with M19-MEL; 0.293 µM (active) in the test on MDA-N. For the same compound, the GI50 in the test with SNB-78 is 4.27 µM (inactive); with XF498, 2.35 µM (inactive).

For `CC(C(=O)N1c2ccccc2Sc2ccccc21)N1c2ccccc2Sc2ccccc21` (stereo not given), the GI50 with MDA-N was > 100 µM (inactive).

Take `Cn1c(=O)c2nc(CCNC(=O)c3ccccc3)[nH]c2n(C)c1=O`: in the test on MDA-N, the GI50 was > 100 µM (inactive).

For `C=C(C)C(=O)O[C@H]1C[C@@]23O[C@@H]2CCC(=C[C@H]2OC(=O)C(=C)[C@H]12)COC3O` (stereo not given in full), the GI50 with MDA-N is 49.2 µM (inactive).

For the compound `N=C(N)N/N=C\c1ccc(C2CCNCC2)cc1`, the GI50 in the test on MDA-N was > 100 µM (inactive).

For `c1ccc(Nc2nnc(CSc3nc(-c4ccccc4)c(-c4ccccc4)[nH]3)s2)cc1`, the GI50 was 53.8 µM (inactive) in the test on DLD-1; 27.5 µM (inactive) in the test on DMS-114; 26.7 µM (inactive) with KM-20L2; 15.3 µM (inactive) in the test with M19-MEL; 30.1 µM (inactive) in the test on SNB-78.

On to `C[C@@H]1C(=O)CC2C(C)(C)CCC[C@]2(C)[C@@]12CC[C@]1(C=COC1)O2` (stereo not given in full), for which the GI50 in the test with DMS-114 is 35.6 µM (inactive); in the test on HOP-18, > 100 µM (inactive); with KM-20L2, 46.7 µM (inactive); in the test on M19-MEL, 38.1 µM (inactive); in the test on SNB-78, 41.2 µM (inactive).

With `Cc1ccc(NC(=O)CCC(=O)C(C#N)c2ccc(Cl)cc2)cc1C` (stereo not given), the GI50 in the test on DLD-1, with DMS-114, in the test with HOP-18, with KM-20L2, with M19-MEL and in the test with SNB-78 was > 100 µM (inactive) in each case. The GI50 with XF498 is > 100 µM (inactive).

As to `Cc1nnc(N/N=C(/C(=O)C(C#N)c2ccccc2)C(C#N)c2ccccc2)n1N` (stereo not given), the GI50 is 22.6 µM (inactive) in the test on DLD-1; 3.01 µM (inactive) with DMS-114; 15.2 µM (inactive) in the test on HOP-18; 49.3 µM (inactive) in the test with KM-20L2; 2.74 µM (inactive) in the test with M19-MEL; > 51.1 µM (inactive) in the test with SNB-78.

As to `Oc1ccc(/C=N/CC2CCCN3CCCCC23)cc1` (stereo not given), in the test on MDA-N, the GI50 was 18.4 µM (inactive).

In the case of `COc1ccc(N2C(=O)C3c4[nH]c5ccccc5c4C4c5ccccc5CC4C3C2=O)cc1` (stereo not given), in the test on MDA-N, the GI50 is > 100 µM (inactive).

Regarding `NC(=O)C[S+]([O-])CC(N)C(=O)O` (stereo not given), in the test on MDA-N, the GI50 was > 100 µM (inactive).

Consider `CN(C)c1cccc2c(S(=O)(=O)NCCN)cccc12` [DANSYL ETHYLENEDIAMINE], for which the GI50 in the test on MDA-N is > 100 µM (inactive).

On to `Cc1cccc(Nc2nn3c(=O)c4c5c(sc4nc3s2)CCCC5)c1`, for which, in the test on MDA-N, the GI50 is 15 µM (inactive).

On to `O=C(N/N=C(COc1ccccc1Cl)\N=C\c1ccncc1)c1ccncc1`, for which, in the test on MDA-N, the GI50 is > 100 µM (inactive).

As to `CC1CC(C)C(C(O)CC2CC(=O)N(c3ccccc3)C(=O)C2)C(O)C1` (stereo not given), the GI50 in the test on DLD-1, with DMS-114, in the test on HOP-18, with KM-20L2, in the test with M19-MEL and with SNB-78 was > 100 µM (inactive) throughout.

With `O=C(CC1(O)C(=O)Nc2ccccc21)c1ccc(F)cc1` (stereo not given), the GI50 in the test on DLD-1, in the test on DMS-114, in the test with KM-20L2, in the test with M19-MEL, in the test with SNB-78 and in the test on XF498 was > 100 µM (inactive) each time.

With `CN(C)/C(F)=P\C(F)(F)F` (stereo not given), the GI50 in the test on DLD-1, with DMS-114, in the test with HOP-18, in the test with KM-20L2, in the test with M19-MEL and in the test on SNB-78 was > 100 µM (inactive) throughout. In addition, the GI50 with XF498 is > 100 µM (inactive).

For `COc1ccc(/C=C2\CCC(C)/C(=C\c3ccc(OC)c(OC)c3)C2=O)cc1OC` (stereo not given), in the test on MDA-N, the GI50 was 5.87 µM (inactive).

Regarding `COC(=O)c1c(-c2cc(OC)c(OC)c(OC)c2)oc2ccccc2c1=O`, the GI50 in the test on DLD-1 is 52 µM (inactive); in the test on HOP-18, > 100 µM (inactive); in the test on KM-20L2, > 100 µM (inactive); with M19-MEL, > 100 µM (inactive); in the test with SNB-78 it was > 100 µM (inactive).

Regarding `Cc1ccc2nc(-c3ccc(N4C(=O)C(Cl)C4c4ccc(Cl)cc4)cc3)sc2c1` (stereo not given), the GI50 in the test with MDA-N is 17.9 µM (inactive).

Regarding `O=C1SC(c2ccc(Cl)cc2)(c2ccc(Cl)cc2)c2ccccc21`, the GI50 in the test on MDA-N was 62.4 µM (inactive).

Regarding `Brc1ccc2c3c1[C@H]1O[C@H]1c1cccc(c1-3)[C@@H]1O[C@H]21`, the GI50 in the test on MDA-N is 16.9 µM (inactive).

Regarding `Cc1ccc(S(=O)(=O)N/N=C2/CCC(C(C)(C)C)CC2Br)cc1` (stereo not given), the GI50 with MDA-N was 28.2 µM (inactive).

With `COCOC1/C=C/CCCC#C[C@H](C)C(=O)CC1` (stereo not given in full), the GI50 in the test on MDA-N was 11.4 µM (inactive).

In the case of `CC1=C(C(=O)Nc2ccc([N+](=O)[O-])cc2)C(c2ccc3c(c2)OCO3)C(C(=O)Nc2ccc([N+](=O)[O-])cc2)=C(C)N1`, the GI50 in the test with DLD-1 is 12 µM (inactive); in the test on DMS-114 it was 8.55 µM (inactive); in the test with HOP-18, 23.3 µM (inactive); in the test on KM-20L2, 28 µM (inactive); in the test on M19-MEL, 13.3 µM (inactive); with SNB-78 it was 68.4 µM (inactive).

On to `CC(=O)O[C@H]1C(=O)[C@@]2(C)[C@H]([C@H](OC(=O)c3ccco3)[C@]3(O)C[C@H](OC(=O)[C@H](O)[C@@H](NC(=O)c4ccccc4)c4ccccc4)C(C)=C1C3(C)C)[C@]1(OC(C)=O)CO[C@@H]1C[C@@H]2O`, for which the GI50 with MDA-N was 0.0127 µM (active).

With `O=C1NC(=S)NC(=O)C1=C/C=C/c1ccc([N+](=O)[O-])cc1`, the GI50 in the test on MDA-N is 8.71 µM (inactive).

`CC1C2C=CC1C(c1c3ccc(=O)c(O)c-3oc3c(O)c(O)ccc13)C2C(=O)O` (stereo not given): in the test with MDA-N, the GI50 was 21.4 µM (inactive).

For the compound `COc1ccc(O)c(C#N)c1C#N`, the GI50 with KM-20L2, with M19-MEL, in the test with SNB-78 and in the test on XF498 was > 100 µM (inactive) each time.

For the compound `COc1ccc(-c2ncn(C[Si](C)(C)C)c2-c2ccc(OC)cc2)cc1`, the GI50 in the test on MDA-N was 3.1 µM (inactive).

For `CC(C)(C)c1ccc2c(c1)S(=O)(=O)Nc1ccc(Cl)cc1NS(=O)(=O)c1cc(C(C)(C)C)ccc1OCCOCCOCCO2`, the GI50 is 85.7 µM (inactive) with DLD-1; 36.3 µM (inactive) with DMS-114; > 100 µM (inactive) in the test on HOP-18; 62.4 µM (inactive) with M19-MEL; 30.6 µM (inactive) in the test with SNB-78.

For `CCOC(=O)c1c(C)nc2c(c1-c1cn(-c3ccccc3)nc1-c1ccccc1)C(=O)c1ccccc1-2`, the GI50 in the test with MDA-N is > 100 µM (inactive).

For the compound `CC(N)C(C)Cc1ccccc1` (stereo not given), the GI50 with MDA-N is > 100 µM (inactive).

`O=C(CN1CCCCC1)Nc1ccc2c(c1)C1Oc3ccccc3CC1CO2` (stereo not given): the GI50 in the test on MDA-N is 19 µM (inactive).

Turning to `CC(C)c1cc(OCC(O)CO)cc(C(C)C)c1` (stereo not given), the GI50 in the test with DLD-1, in the test with DMS-114, with HOP-18, in the test with KM-20L2, in the test on M19-MEL and in the test on SNB-78 was > 100 µM (inactive) throughout. In addition, the GI50 with XF498 was > 100 µM (inactive).

Regarding `Cc1ccc2c(c1)C(=O)c1nc(C)ccc1C2=O`, the GI50 with MDA-N was 20.2 µM (inactive).

Take `C=CCc1cccc2cc(C(N)=O)c(=N)oc12`: the GI50 in the test on MDA-N is > 100 µM (inactive).

`Cc1ccccc1NC(=O)C(=O)CC(=O)c1sc(Nc2ccccc2[N+](=O)[O-])nc1C`: in the test with MDA-N, the GI50 was 35.7 µM (inactive).

In the case of `c1cc(C2N3CCCN2CC3)ccn1` (stereo not given), in the test on MDA-N, the GI50 is 35.1 µM (inactive).

Consider `CSc1nc2c(N)ncnc2n1C`, for which the GI50 with MDA-N was > 100 µM (inactive).

Consider `CCCCc1ccc(Nc2nc(Cl)c3ncn(C4CC(Oc5ccc(C)cc5)C(COc5ccc(C)cc5)O4)c3n2)cc1` (stereo not given), for which, in the test on MDA-N, the GI50 was > 100 µM (inactive).

As for `O=C(O)Cc1cccc2c1OC(c1ccccc1)C(C(=O)c1ccccc1)C2=O` (stereo not given), the GI50 in the test on MDA-N was 33.8 µM (inactive).

Regarding `Cc1cc(NCc2ccccc2)c2ccccc2[n+]1CCCCCCCCCC[n+]1c(C)cc(NCc2ccccc2)c2ccccc21.[O-][Cl+3]([O-])([O-])[O-].[O-][Cl+3]([O-])([O-])[O-]`, in the test on MDA-N, the GI50 was 0.374 µM (active).
